This note sets out measurements from US20130053435A1, “Methods of Treating Alcohol Intoxication, Alcohol Use Disorders and Alcohol Abuse Which Comprises the Administration of Dihydromyricetin” (priority 2011, published 2013).

For experiment [1], the system named is T1, GABAARs.
T1 construct: DHM-enhanced mIPSCs; other: control (vehicle) cultured neurons, DIV14; other: cultured neurons with EtOH exposure/withdrawal (60 mM, 30 min, 24 hr); EtOH-potentiated mIPSCs; effect on post-synaptic currents (mIPSCs); other: comparative experiments, rat hippocampal slices
The experiment can be described thus: Whole-cell patch-clamp, cultured hippocampal neurons, acute drug application. The format is cell-based, rat. The procedure:
(§1) Hippocampal neurons from embryonic day 18 rats were prepared by papain dissociation (Worthington Biochemical, Lakewood, N.J.) and cultured in neurobasal medium and B27 supplement (Invitrogen). Cultures were kept at 37° C. in a 5% CO2 humidified incubator as described previously. See Shen, Y., et al. (2011) Mol Pharmacol 79:432-442.
(§2) Hippocampal neurons from embryonic day 18 SD rats were prepared by papain dissociation (Worthington Biochemical, Lakewood, N.J.) and cultured in neurobasal medium (Invitrogen) and B27 supplement as previously reported. See Stowell J N and Craig A M (1999) Neuron 22(3):525-536. Briefly, embryos were removed from maternal rats anesthetized with isoflurane and euthanized by decapitation. Hippocampus were dissected and placed in Ca^2+- and Mg^2+-free HEPES-buffered Hank's buffered salt solution (pH 7.45). Tissues were dissociated by papain digestion followed by trituration through a Pasteur pipette and papain inhibitor treatment. Cells were pelleted and resuspended in neurobasal medium containing 2% B27 serum-free supplement, 100 U/ml penicillin, 100 μg/ml streptomycin, 0.5 mM glutamine (all from Invitrogen), and 10 μM glutamate (Sigma).
(§3) Dissociated neurons were then plated at a density of 0.3×10^5 cells/cm^2 onto 12 mm round coverslips in 24-well plates (for patch-clamp recording) and/or at a density of 0.5×10^5 cells/cm^2 in 6-well plates (for Western blot and biotinylation assays) coated with poly-D-lysine (Sigma, 50 μg/ml). Cultures were kept at 37° C. in a 5% CO2 humidified incubator. Thereafter, one third to half of the medium was replaced twice a week with neurobasal culture medium containing 2% B27 supplement, and 0.5 mM glutamine.
(§4) Control neurons were treated with corresponding vehicle as same procedure as EtOH-treated neurons. The concentration of 60 mM EtOH was selected in view of prior experiments. See Liang J et al (2007). Specifically, the concentration of 60 mM EtOH used to treat cultured neurons was chosen to match blood levels measured in adult rats after intoxication with gavage of 5 g/kg, which produced about 60 mM blood peak plasma [EtOH] lasting for about 2 to 3 hr and induced significant plasticity in GABAARs and tolerance.
(§5) Then, immediately before electrophysiological recording, cells grown on coverslips were transferred to a perfusion chamber (Warner Instruments) and visualized with an inverted microscope (TE200, Nikon). Whole-cell patch-clamp recordings were obtained from cultured neurons under voltage-clamp mode at room temperature (22-25° C.), at a holding potential of −70 mV. Cells were perfused with an extracellular solution (137 mM NaCl, 5 mM KCl, 2 mM CaCl2, 1 mM MgCl2, 20 mM glucose and 10 mM HEPES (310-320 Osm, pH adjusted to 7.40 with NaOH)). Glass pipettes were filled with the same internal solution as that in slice recordings, with an input resistance of 4-7 MΩ. GABAAR-mediated mIPSCs were recorded using the same pharmacological method as mentioned above. […] Electrical signals were amplified using a Multiclamp 200 B amplifier (Molecular Devices, USA). After establishing the whole-cell configuration, at least 10 min were allowed to elapse before the application of drug to allow the membrane patch to stabilize and exchange of ions between the recording electrode and the cytosol to occur. Data were acquired with pClamp software (Version 10.0, Molecular Devices, USA), digitized at 20 kHz (Digidata 1440A, Molecular Devices), and analyzed using the Clampfit software (Version 10.0, Molecular Devices) and the Mini Analysis Program (versions 6.0.7, Synaptosoft, Decatur, Ga.) using methods known in the art. See Hamann M, et al. (2002) Neuron 33(4):625-633; Stell B M and Mody I (2002) J Neurosci 22(10): RC223; and Liang (2007).
A general note: In patch-clamp work, channel activity is measured electrically.

The test system of experiment [2] is T2, GABAARs.
T2 construct: DHM-enhanced Itonic; EC50 on GABAAR-mediated Itonic; other: control (vehicle) cultured neurons, DIV14; other: cultured neurons with EtOH exposure/withdrawal (60 mM, 30 min, 24 hr); EtOH-potentiated Itonic; GABAAR-mediated Ito
The experiment is described as above. The format is cell-based, rat. The method, then:
as §1, §2, §3, §4, §5

Experiment [3] relates to T3, GABAARs.
T3 construct: other: in the presence of 60 mM EtOH, rat hippocampal; shift of the GABA concentration-response curve
The experiment is described as above. Format: cell-based, rat. The following applies: DHM 0.3 and 1 μM co-applied with GABA (b110 prints 1 M). The method, then:
as §1, §2, §3, §4, §5

Experiment [4] deals with PTZ-induced seizures in rats. As to the kind of experiment: PTZ-induced seizures after EtOH withdrawal. The format is in vivo, rat. The following applies: for PTZ-induced seizure duration: FIG. 12C. The procedure:
Pentylenetetrazol (PTZ)-induced seizures were also measured in rats. […] PTZ dose used in this study (42 mg/kg in saline) was determined as the dose that induced seizures in 75% naïve rats. Briefly, after i.p. injection of PTZ, the time to onset and the duration of tonic-clonic seizures was determined as described previously. The researchers who conducted the animal behavior experiments were blind to treatment groups. Animals were used once only for any determination.
48 hr after injection, rats were sub-divided into 3 groups to measure signs of EtOH withdrawal.
As described herein, hyperexcitability was assayed with PTZ-induced seizures duration (FIG. 12C). PTZ induced 0.9±0.2 min seizures in subjects of the vehicle group and 6.5±1.1 min seizures in subjects of the EtOH group.

Values joined by “and” are separate entries in the source; they are usually repeats but may differ in a detail not shown here. Identical values can stand only once. Like-named read-outs stand apart in the source and are kept apart here.

The term EC50 denotes the midpoint of the concentration-response curve.

In the case of `O=C1c2c(O)cc(O)cc2O[C@H](c2cc(O)c(O)c(O)c2)[C@H]1O` [DHM, (2R,3R)-3,5,7-trihydroxy-2-(3,4,5-trihydroxyphenyl)-2,3-dihydrochromen-4-one], the “mIPSCs (area)” value in the experiment with GABAARs [1] (1 μM DHM, cultured hippocampal neurons) is 181.8±9.2 % of control and 128.2±8.3 % of control. For the same compound, the 50% effective concentration (EC50) is ~200 nM and ~300 nM in the experiment with GABAARs [1] (control (vehicle) cultured neurons, DIV14, read-out: EC50 on mIPSCs); around 200 nM in the experiment on GABAARs [2] (control (vehicle) cultured neurons, DIV14, read-out: EC50 on GABAAR-mediated Itonic); ~200 nM and ~300 nM in the experiment on GABAARs [2] (cultured neurons with EtOH exposure/withdrawal (60 mM, 30 min, 24 hr), read-out: EC50 on Itonic). Also, the Itonic is 21.0±2.3 pA with GABAARs [2] (0.3 μM DHM, cultured hippocampal neurons) and 194.9±13.6 % of control in the experiment with GABAARs [2] (1 μM DHM, cultured hippocampal neurons DIV13-14). In addition, the “shift of the GABA concentration-response curve” value in the experiment on GABAARs [3] is recorded as “left shift”. Further, the PTZ-seizure duration result in experiment [4] (24 hr after DHM 1 mg/kg i.p. alone) is “did not induce any significant or observable changes in seizure duration”; in experiment [4] (24 hr withdrawal from DHM+EtOH (1 mg/kg+3 g/kg, i.p.), PTZ 42 mg/kg), 0.9 ± 0.2 min. Besides, the PTZ seizure incidence in experiment [4] (24 hr withdrawal from DHM+EtOH) turned out to be 85%. Moreover, the PTZ-induced seizure duration is 1.7 ± 0.8 min in experiment [4] (48 hr withdrawal, EtOH+DHM group) and 0.6 ± 0.4 min in experiment [4] (48 hr, DHM group). Further, in experiment [4] (female rats, co-administration of DHM+EtOH), the “EtOH intoxication/withdrawal-induced increases in PTZ-induced seizure duration and incidence, female rats” value is listed as “inhibits, reduces and/or prevents”.
